Like-named read-outs stand apart in the source and are kept apart here.
How the values were obtained:
[1] = cited from earlier work; for pKa: literature value
physchem = type: physicochemical
Protocol: Fluorescence measurements were recorded with a Varian Cary Eclipse fluorescence spectrophotometer. A solid sample/cuvette holder designed for front-face measurements was used to measure sensor patches that were fixed to the inside front wall of a PMMA disposable cuvette. Excitation light was fixed at an angle of incidence of 30°. Solutions were measured in regular 90° configuration. Cuvettes containing sensor patches were equilibrated in buffered saline solutions ranging in pH from 5 to 10. Uncorrected excitation and emission spectra were recorded for each sample. For comparison, solutions of DHDS and HPTS were also prepared and tested at the same pH values.
FIG. 3 depicts the calibration curves of excitation intensity ratio versus pH for DHDS solution, HPTS solution and the immobilized HPDS. Sensors comprising HDPS-PEG layers were calibrated in buffered saline solutions that ranged in pH from 5 to 10. In each case, the appropriate buffering species, i.e., phosphate, tris or bicarbonate, was at 10 mM and the desired ionic strength, e.g., 20, 150 or 300 mM, was made up with sodium chloride salt. Cuvettes containing sensor patches were equilibrated in each solution. For comparison 1 μM solutions of DHDS and HPTS also were prepared and tested over the same pH range.
Calibration curves for HPTS and MA-HPDS were fit to the following expression (25) describing intensity ratio (R) of monoprotic indicator dyes as a function of pH: R=([H^+]Rmax+ka,appRmin)/ka,app+[H^+] (1) where ka,app is the apparent dissociation constant of the immobilized dye. A least-squares linear regression was used to determine the parameters Rmin, Rmax and ka,app. The pka,app of the immobilized dye was calculated to be 7.61±0.05 for these conditions. This is in good agreement with the pka,app of HPTS in solution, which was calculated to be 7.72±0.02 under the same conditions.
The modified dye is sensitive over the same range as HPTS. The calibration curve for DHDS was fit to an expression similar to that for monoprotic acids, but for diprotic acids. The second hydroxyl group causes DHD to be sensitive over an extended range with two dissociation constants calculated to be pka1,app=7.03±0.02 and pka1,app=9.05±0.02 under these conditions.

[2] = literature (11); cited from earlier work

| SMILES | pKa [1] | pKa (physchem) | further results |
| --- | --- | --- | --- |
| O=S(=O)([O-])c1cc(S(=O)(=O)[O-])c2ccc3c(O)cc(O)c4ccc1c2c43.[Na+].[Na+] [DHDS, 6,8-dihydroxy-1,3-pyrenedisulfonic acid disodium salt] |  |  | second pKa ([1]; literature value (9)): approximately 8.5; pka1,app (first dissociation constant) (physchem): 7.03±0.02; pka1,app (second printed dissociation constant) (physchem): 9.05±0.02 |
| O=S(=O)([O-])c1cc(O)c2ccc3c(S(=O)(=O)[O-])cc(S(=O)(=O)[O-])c4ccc1c2c34.[Na+].[Na+].[Na+] [HPTS, 8-hydroxy-1,3,6-pyrene trisulphonic acid trisodium salt] | approximately 7.3 | 7.72 ± 0.02 | toxicity [2]: low toxicity |
| C=C(C)C(=O)Oc1cc(O)c2ccc3c(S(=O)(=O)O)cc(S(=O)(=O)O)c4ccc1c2c34 [MA-HPDS, 6-methacryloyl-8-hydroxy-1,3-pyrene disulfonic acid] |  | 7.61 ± 0.05 |  |
| O=C1OC2(c3cc(Cl)c(O)cc3Oc3cc(O)c(Cl)cc32)c2ccccc21 [dichlorofluorescein] | ~4 |  |  |

— patent publication US7390462B2, “Ratiometric fluorescent pH sensor for non-invasive monitoring” (The University of Maryland Baltimore County, priority 2002, dated 2008)
